Laboratory results: US20140079632A1, “ACTIVITY-BASED PROBES FOR THE UROKINASE P[…]” (UNIVERSITEIT ANTWERPEN, priority 2011, published 2014)

Legend:
Format in all cases: biochemical
uPA [1] = molecular target: T1, uPA (Homo sapiens, UniProt P00749); experiment: uPA inhibition: in vitro evaluation, IC50 with chromogenic substrate Biophen CS-61(44); details: 15 min preincubation at 37° C.; Tris buffer pH 8.8; 250 μM substrate
T1 construct: purchased Nodia
Method: Enzymatic activity was measured at 37° C. in a Spectramax 340 (Molecular Devices) microtiter plate reader using the chromogenic substrate Biophen CS-61(44) (LpyroGlu-Gly L-Arg-p-NA.HCl), with a Km of 80 μM.
(§1) The substrate and human enzyme were obtained from Nodia. The reaction was monitored at 405 nm, and the initial rate was determined between 0 and 0.25 absorbance units in 20 min. The reaction mixture contained 250 μM substrate and approximately 1 mU of enzyme in 145 μL of buffer in a final volume of 200 μL. A 50 mM Tris buffer, pH 8.8, was used. From each inhibitor concentration, 5 μL was added, obtaining a final concentration from 0 to 250 μM in a total volume of 0.2 mL. Activity measurements were routinely performed in duplicate. […] IC50 values were obtained by fitting the data with the four-parameter logistics equation using Grafit 5.
where s=slope factor, v=rate, I0=inhibitor concentration, and range=the fitted uninhibited value minus the background. The equation assumes the y falls with increasing x.
(§2) Inhibitor stock solutions were prepared in DMSO and stored at −20° C. Because the compounds described in this paper completely inactivate uPA following pseudofirst-order kinetics, the IC50 value is inversely correlated with the second-order rate constant of inactivation. For a simple pseudofirst-order inactivation process, the activity after incubation with inhibitor (vi) varies with the inhibitor concentration (i), as described in the following equation: […]

uPA [2] = molecular target: T1, uPA; experiment: uPA inactivation kinetics from progress curves (kobs versus inhibitor concentration, kapp); details: 250 μM substrate, 37° C.
Method: as §2
where vo is the activity in absence of inhibitor, k is the second-order rate constant of inactivation, and t is the time. The inactivation rate constant was determined from the time course of inhibition.
The inhibitor was mixed with the substrate (250 μM final concentration), and the buffer solution with the enzyme was added at the time zero. The inhibitor concentrations were chosen to obtain total inhibition of the enzyme within 20 min. The progress curves show the absorbance of p-nitroanilide produced as a function of time. Initially, no inhibitor is bound to the enzyme, and the tangent to the progress curve (dA/dt) is proportional to the concentration of the free enzyme. The concentration of free enzyme decreases over time due to the kinetics of inhibitor binding, as described above. Progress curves were recorded in pseudofirst-order conditions ([I]0>>[E]0) and with less than 10% conversion of the substrate during the entire time course. In these conditions, dA/dt decreases exponentially with time. The progress curves were fitted with the integrated rate equation to yield a value for kobs, a pseudofirst-order rate constant
At=v0[1−e^−k^obs^t]/kobs+A0
where At=absorbance at time t, A0=absorbance at time zero, and v0=uninhibited initial rate.
The apparent second-order rate constant (kapp) was calculated from the slope of the linear part of the plot of kobs versus the inhibitor concentration ([I]0). In case of competition between the inhibitor and the substrate, kapp is smaller than the “real” second order rate constant k discussed above because a certain fraction of the enzyme is present as an enzyme-substrate complex. kapp depends on the substrate concentration used in the experiment, as described by Lambeir et al.^40 For most final compounds, the kobs versus [I]0 plot was not linear, but could be fitted with a hyperbolic function: kobs=k2[I]0/(K1+[I]0) (two step mechanism). Where K1 is the dissociation constant of the reversible enzyme-inhibitor complex and k2 is the first-order rate constant associated with irreversible modification of the enzyme. A kapp could be calculated as k2/K1.

tPA (recombinant) = molecular target: T2, tPA (recombinant) (Homo sapiens, UniProt P00750); experiment: Selectivity: tPA inhibition, substrate Biophen CS-05(88); details: for IC50: 15 min preincubation, Tris buffer pH 8.3, 1.25 mM substrate
T2 construct: purchased Nodia
Method: as §1, with “The reaction mixture contained 250 μM substrate and approximately 1 mU of enzyme in 145 μL of buffer in a final volume of 200 μL.” left out
(§3) The IC50 values for plasmin (from human plasma, Sigma), tPA (recombinant, Nodia), thrombin (from human plasma, Sigma), and FXa were determined in the same way as for uPA.
(§4) For tPA and thrombin, Tris buffer, pH 8.3, was used, for FXa, Tris buffer, pH 8.3, for plasmin, Tris buffer, pH 7.4, was used.

[3] = molecular target: T3, thrombin (from human plasma) (Homo sapiens, UniProt P00734); experiment: Selectivity: thrombin inhibition, substrate Biophen CS-21(66); details: 15 min preincubation; Tris buffer pH 8.3; 580 μM substrate
T3 construct: thrombin (from human plasma, Sigma); purchased Sigma; host or cells: human plasma
Method: as §1, with “The reaction mixture contained 250 μM substrate and approximately 1 mU of enzyme in 145 μL of buffer in a final volume of 200 μL.” left out
as §3, §4

[4] = molecular target: T4, plasmin (from human plasma) (Homo sapiens, UniProt P00747); experiment: Selectivity: plasmin inhibition, substrate Biophen CS-21(66); details: 15 min preincubation; Tris buffer pH 7.4; 580 μM substrate
T4 construct: purchased Sigma; host or cells: human plasma
Method: as §1, with “The reaction mixture contained 250 μM substrate and approximately 1 mU of enzyme in 145 μL of buffer in a final volume of 200 μL.” left out
as §3, §4

FXa = FXa (Homo sapiens, UniProt P00742); experiment: Selectivity: FXa inhibition, substrate Biophen CS-11(32); details: for FXa % (I) @ 250: at 250 (μM)
[5] = asterisked: compound showed a two-step mechanism, kapp calculated as k2/K1

T4 sequence (P00747 581-810 limits assumed): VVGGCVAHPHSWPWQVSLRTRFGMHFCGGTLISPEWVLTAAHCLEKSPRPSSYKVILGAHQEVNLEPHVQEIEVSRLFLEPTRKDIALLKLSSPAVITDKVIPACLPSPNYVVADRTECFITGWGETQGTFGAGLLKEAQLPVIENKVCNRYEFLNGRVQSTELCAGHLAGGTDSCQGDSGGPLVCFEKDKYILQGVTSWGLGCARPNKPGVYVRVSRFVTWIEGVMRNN
T4 sequence (P00747 97-580 partner limits assumed): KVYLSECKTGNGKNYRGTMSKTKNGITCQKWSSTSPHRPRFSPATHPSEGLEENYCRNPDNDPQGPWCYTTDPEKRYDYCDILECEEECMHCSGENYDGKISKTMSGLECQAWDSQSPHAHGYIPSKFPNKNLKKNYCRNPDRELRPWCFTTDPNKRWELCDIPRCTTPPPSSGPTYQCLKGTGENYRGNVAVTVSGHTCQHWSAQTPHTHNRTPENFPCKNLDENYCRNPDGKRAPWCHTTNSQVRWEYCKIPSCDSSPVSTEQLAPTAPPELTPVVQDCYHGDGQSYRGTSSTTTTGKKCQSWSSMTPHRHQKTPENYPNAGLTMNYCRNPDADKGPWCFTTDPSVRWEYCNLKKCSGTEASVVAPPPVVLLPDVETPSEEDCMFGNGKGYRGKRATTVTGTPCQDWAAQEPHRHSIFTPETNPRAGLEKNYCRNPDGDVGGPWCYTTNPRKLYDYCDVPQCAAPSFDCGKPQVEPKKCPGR
T2 sequence (P00750 36-562, species assumed): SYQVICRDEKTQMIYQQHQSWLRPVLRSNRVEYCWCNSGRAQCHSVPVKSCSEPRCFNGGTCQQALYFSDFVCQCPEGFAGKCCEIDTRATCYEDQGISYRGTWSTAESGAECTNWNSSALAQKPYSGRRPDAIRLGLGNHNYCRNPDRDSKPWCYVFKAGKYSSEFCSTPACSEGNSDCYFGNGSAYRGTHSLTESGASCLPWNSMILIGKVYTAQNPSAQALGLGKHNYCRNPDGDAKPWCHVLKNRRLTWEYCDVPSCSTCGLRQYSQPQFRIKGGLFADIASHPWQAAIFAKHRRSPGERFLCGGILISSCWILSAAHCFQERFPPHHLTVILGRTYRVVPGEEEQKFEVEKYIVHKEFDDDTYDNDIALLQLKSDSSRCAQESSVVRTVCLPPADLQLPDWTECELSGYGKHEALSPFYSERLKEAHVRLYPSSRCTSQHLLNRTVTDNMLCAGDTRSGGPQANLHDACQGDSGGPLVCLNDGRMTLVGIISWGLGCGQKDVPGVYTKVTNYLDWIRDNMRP
Chain of FXa (P00742 235-488 limits assumed): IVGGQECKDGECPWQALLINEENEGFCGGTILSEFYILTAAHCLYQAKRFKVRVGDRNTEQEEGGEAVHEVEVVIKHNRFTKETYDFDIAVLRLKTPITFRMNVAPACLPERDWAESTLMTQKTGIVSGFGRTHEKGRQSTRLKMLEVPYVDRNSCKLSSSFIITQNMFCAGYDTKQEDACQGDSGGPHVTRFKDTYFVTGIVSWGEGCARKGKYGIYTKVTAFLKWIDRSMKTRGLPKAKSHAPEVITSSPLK
Chain of FXa (P00742 41-179 partner limits assumed): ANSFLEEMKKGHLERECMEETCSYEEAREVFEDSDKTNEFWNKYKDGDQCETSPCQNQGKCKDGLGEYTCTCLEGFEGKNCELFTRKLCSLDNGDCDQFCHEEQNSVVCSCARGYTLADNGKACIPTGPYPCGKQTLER

| SMILES | IC50 (uPA [1]) | uPA: kapp (uPA [2]; apparent second-order rate constant from slope of kobs versus [I]0, no asterisk) | IC50 (tPA (recombinant)) | IC50 [3] | IC50 [4] | IC50 (FXa; 15 min preincubation, Tris buffer pH 8.3, 522 μM substrate) | uPA: kapp (uPA [2]; [5]) | FXa % (I) @ 250 (FXa) | tPA % I @ 250 (tPA (recombinant); at 250 (μM)) |
| --- | --- | --- | --- | --- | --- | --- | --- | --- | --- |
| CCN(CC)c1ccc2c(-c3ccccc3C(=O)N3CCN(C(=O)CCCCCCCn4cc(CCCOC(=O)NC(Cc5ccc(NC(=N)N)cc5)P(=O)(Oc5ccccc5)Oc5ccccc5)nn4)CC3)c3ccc(=[N+](CC)CC)cc-3oc2c1.O=C(O)C(F)(F)F.[Cl-] (stereo not drawn) [Final compound 4, 2,2,2-trifluoroacetic acid, N-(6-(diethylamino)-9-(2-(4-(8-(4-(3-(((1-(diphenoxyphosphoryl)-2-(4-guanidinophenyl)ethyl)carbamoyl)oxy)propyl)-1H-1,2,3-triazol-1-yl)octanoyl)piperazine-1-carbonyl)phenyl)-3H-xanthen-3-ylidene)-N-ethylethanaminium chloride] | 0.025 ± 0.007 µM | 4900 ± 90 M⁻¹ s⁻¹ | 8 ± 1 µM | 3.5 ± 0.8 µM | 4.6 ± 2.3 µM | 65 ± 14 µM | – | – | – |
| CCN(CC)c1ccc2c(-c3ccccc3C(=O)N3CCN(C(=O)CCCCCCCn4cc(CCCOC(=O)NC(Cc5ccc(NC(=N)N)cc5)P(=O)(Oc5ccc(NC(C)=O)cc5)Oc5ccc(NC(C)=O)cc5)nn4)CC3)c3ccc(=[N+](CC)CC)cc-3oc2c1.O=C(O)C(F)(F)F.[Cl-] (stereo not drawn) [Final compound 5, 2,2,2-trifluoroacetic acid, N-(9-(2-(4-(8-(4-(3-(((1-(bis(4-acetamidophenoxy)phosphoryl)-2-(4-guanidinophenyl)ethyl)carbamoyl)oxy)propyl)-1H-1,2,3-triazol-1-yl)octanoyl)piperazine-1-carbonyl)phenyl)-6-(diethylamino)-3H-xanthen-3-ylidene)-N-ethylethanaminium chloride] | 0.022 ± 0.002 µM | – | > 62 µM | 5.2 ± 0.2 µM | 5.6 ± 1.5 µM | – | 52 × 10^2 ± 1 × 10^2 * M^−1 s^−1 | 90% @ 250 | – |
| C#CCOCCOCCOCCOC(=O)NC(Cc1ccc(NC(=N)N)cc1)P(=O)(Oc1ccccc1)Oc1ccccc1.O=C(O)C(F)(F)F (stereo not drawn) [Intermediate 57, 2-(2-(2-(prop-2-ynyloxy)ethoxy)ethoxy)ethyl 1-(diphenoxyphosphoryl)-2-(4-guanidinophenyl)ethylcarbamate 2,2,2-trifluoroacetate] | 0.011 ± 0.001 µM | – | 67 ± 7 µM | 21 ± 5 µM | 9 ± 2 µM | – | 11 × 10^3 ± 4 × 10^3 * M^−1 s^−1 | 54% @ 250 | – |
| N=C(N)Nc1ccc(CC(NC(=O)OCCCc2cn(CCOCCOCCOCCNC(=O)CCCC[C@@H]3SC[C@@H]4NC(=O)N[C@@H]43)nn2)P(=O)(Oc2ccccc2)Oc2ccccc2)cc1.O=C(O)C(F)(F)F (stereo partly drawn) [Final compound 7, 3-(1-(13-oxo-17-((3aS,4S,6aR)-2-oxohexahydro-1H-thieno[3,4-d]imidazol-4-yl)-3,6,9-trioxa-12-azaheptadecyl)-1H-1,2,3-triazol-4-yl)propyl (1-(diphenoxyphosphoryl)-2-(4-guanidinophenyl)ethyl)carbamate 2,2,2-trifluoroacetate] | 0.0156 ± 0.001 µM | – | 58 ± 6 µM | 14.1 ± 0.3 µM | 4.7 ± 0.1 µM | – | 86 × 10^2 ± 10 × 10^2 * M^−1 s^−1 | 73% I @ 250 ^ | – |
| CC1=CC(C)=[N+]2C1=C(CCCCCCCn1cc(CCCOC(=O)NC(Cc3ccc(NC(=N)N)cc3)P(=O)(Oc3ccccc3)Oc3ccccc3)nn1)c1c(C)cc(C)n1[B-]2(F)F.O=C(O)C(F)(F)F (stereo not drawn) [Final compound 6, 10-(7-(4-(3-(((1-(diphenoxyphosphoryl)-2-(4-guanidinophenyl)ethyl)carbamoyl)oxy)propyl)-1-1,2,3-triazol-1-yl)heptyl)-5,5-difluoro-1,3,7,9-tetramethyl-5H-dipyrrolo[1,2-c:2′,1′-f][1,3,2]diazaborinin-4-ium-5-uide 2,2,2-trifluoroacetate] | 0.0467 ± 0.0015 µM | – | – | ~125 µM | 0.674 ± 0.123 µM | – | 12.2 × 10^2 ± 0.5 × 10^2 * M^−1 s^−1 | 19% I @ 250 ^ | 19% I @ 250 |
